The values that follow come from PubChem BioAssay AID248 (DTP/NCI, 2004).

The assay deals with L1210 leukemia ip in BDF1 mice, survival T/C. Put plainly: NCI In Vivo Anticancer Drug Screen. Data for tumor model L1210 Leukemia (intraperitoneal) in B6D2F1 (BDF1) mice. The conditions noted are these: endpoint: mean survival time, higher = longer survival. The essentials: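 Each compound was tested against a transplantable tumor grown in mice. The endpoint was survival, with treated animals benchmarked against vehicle controls as a simple ratio.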

Setting [1] is: dose: 50.0 mg/kg/injection, schedule: Q01DX009 (ip), vehicle: saline.
[2] abbreviates: dose: 100.0 mg/kg/injection, schedule: Q04DX003 (ip), vehicle: saline.
[3] abbreviates: dose: 200.0 mg/kg/injection, schedule: Q04DX003 (ip), vehicle: saline.
Setting [4] is: dose: 100.0 mg/kg/injection, schedule: Q01DX009 (ip), vehicle: Klucel (hydroxypropylcellulose) (HPC).
[5] abbreviates: dose: 100.0 mg/kg/injection, schedule: Q04DX003 (ip), vehicle: Klucel (hydroxypropylcellulose) (HPC).
Where [6] appears, read: dose: 200.0 mg/kg/injection, schedule: Q01DX009 (ip), vehicle: Klucel (hydroxypropylcellulose) (HPC).
Where [7] appears, read: dose: 200.0 mg/kg/injection, schedule: Q04DX003 (ip), vehicle: Klucel (hydroxypropylcellulose) (HPC).
[8] abbreviates: dose: 400.0 mg/kg/injection, schedule: Q01DX009 (ip), vehicle: Klucel (hydroxypropylcellulose) (HPC).
The mark [9] stands for this setting: dose: 400.0 mg/kg/injection, schedule: Q04DX003 (ip), vehicle: Klucel (hydroxypropylcellulose) (HPC).
The mark [10] stands for this setting: dose: 100.0 mg/kg/injection, schedule: Q04DX003 (ip), vehicle: saline with Tween-80.
The mark [11] stands for this setting: dose: 200.0 mg/kg/injection, schedule: Q04DX003 (ip), vehicle: saline with Tween-80.
The mark [12] stands for this setting: dose: 400.0 mg/kg/injection, schedule: Q04DX003 (ip), vehicle: saline with Tween-80.
The mark [13] stands for this setting: dose: 100.0 mg/kg/injection, schedule: Q01DX001 (ip), vehicle: saline.
[14] abbreviates: dose: 200.0 mg/kg/injection, schedule: Q01DX001 (ip), vehicle: saline.
Setting [15] is: dose: 400.0 mg/kg/injection, schedule: Q01DX001 (ip), vehicle: saline.
Where [16] appears, read: dose: 100.0 mg/kg/injection, schedule: Q01DX009 (ip), vehicle: saline with Tween-80.
The mark [17] stands for this setting: dose: 200.0 mg/kg/injection, schedule: Q01DX009 (ip), vehicle: saline with Tween-80.

Where “and” joins values, the source holds several entries; their conditions need not be identical. Identical values can stand only once. Toxic doses and inconclusive results are not listed.

With `FC1(F)SC2CC/C=C\CCC2C1(F)F` (stereo not given), the T/C runs as follows: (dose: 0.75 mg/kg/injection, schedule: Q04DX003 (ip), vehicle: Klucel (hydroxypropylcellulose) (HPC)) 90 % of control; (dose: 1.5 mg/kg/injection, schedule: Q01DX009 (ip), vehicle: Klucel (hydroxypropylcellulose) (HPC)) 96 % of control; (dose: 1.5 mg/kg/injection, schedule: Q04DX003 (ip), vehicle: Klucel (hydroxypropylcellulose) (HPC)) 98 % of control; (dose: 3.0 mg/kg/injection, schedule: Q01DX009 (ip), vehicle: Klucel (hydroxypropylcellulose) (HPC)) 102 % of control; (dose: 3.0 mg/kg/injection, schedule: Q04DX003 (ip), vehicle: Klucel (hydroxypropylcellulose) (HPC)) 102 % of control; (dose: 3.12 mg/kg/injection, schedule: Q04DX003 (ip), vehicle: Klucel (hydroxypropylcellulose) (HPC)) 86 % of control. The T/C (dose: 12.0 mg/kg/injection, schedule: Q04DX003 (ip), vehicle: Klucel (hydroxypropylcellulose) (HPC)) was 88 % of control.

With `CCOC(=O)N(Cl)Cl`, the T/C is 105 % of control (dose: 3.13 mg/kg/injection, schedule: Q04DX003 (ip), vehicle: saline); 98 % of control (dose: 6.25 mg/kg/injection, schedule: Q04DX003 (ip), vehicle: saline); 98 % of control (dose: 12.5 mg/kg/injection, schedule: Q04DX003 (ip), vehicle: saline).

Take `COc1cccc(NN)c1`: the T/C under setting [1] was 100 % of control and the T/C under setting [2] is 101 % of control.

`CN(C)/N=C\c1cccnc1`: the T/C is 112 % of control under setting [2] and 86 % of control under setting [3].

For `COc1ccc(OC)c(NC(=S)NC(=O)c2cccc([N+](=O)[O-])c2)c1`, the T/C is 106 % of control under setting [4]; 120 % of control under setting [5]; 106 % of control under setting [6]; 100 % of control under setting [7]; 94 % of control under setting [8]; 97 % of control under setting [9].

Regarding `c1ccc(P(=NC2CCCC2)(c2ccccc2)c2ccccc2)cc1`, the T/C reads like this: under setting [10], 89 % of control; under setting [11], 92 % of control; under setting [12], 87 % of control.

On to `c1cnc2ccc3c(c2c1)COCO3`, for which, under setting [13], the T/C was 93 % of control.

On to `CCC[N+](C)(C)CCOC(=O)C1C2CC3OC(=O)C1C3C2` (stereo not given), for which the T/C is, setting by setting: under setting [2], 97 % of control; under setting [3], 95 % of control.

Regarding `O=C1NCC(CCl)O1` (stereo not given), the T/C runs as follows: under setting [13], 101 % of control; under setting [14], 91 % of control; under setting [15], 101 % of control.

As to `CCOC(=O)C(C)(C)Oc1ccc(O)cc1`, the T/C was 105 % of control (dose: 100.0 mg/kg/injection, schedule: Q01DX001 (ip), vehicle: saline with Tween-80); 105 % of control (dose: 200.0 mg/kg/injection, schedule: Q01DX001 (ip), vehicle: saline with Tween-80); 97 % of control (dose: 400.0 mg/kg/injection, schedule: Q01DX001 (ip), vehicle: saline with Tween-80).

On to `CC(C)=CCC/C(C)=C/CN1C(=O)CN(C)C1=O`, for which the T/C by setting is: under setting [1], 98 % of control; under setting [13], 100 % of control; (dose: 100.0 mg/kg/injection, schedule: Q01DX009 (ip), vehicle: saline) 101 % of control; under setting [14], 103 % of control; (dose: 200.0 mg/kg/injection, schedule: Q01DX009 (ip), vehicle: saline) 98 % of control; under setting [15], 100 % of control.

As for `c1cnc2sccc2c1`, the T/C was 113 % of control (dose: 50.0 mg/kg/injection, schedule: Q01DX009 (ip), vehicle: saline with Tween-80); 95 % of control under setting [16]; 102 % of control under setting [10]; 103 % of control under setting [11].

Turning to `N#CCCP(=O)(CCC#N)CCP(=O)(CCC#N)CCC#N`, the T/C was 91 % of control under setting [10], 91 % of control under setting [11] and 94 % of control under setting [12].

For the compound `[N-]=[N+]=NC(=O)C1C2CC3C(C2)C31` (stereo not given), the T/C was 95 % of control (dose: 100.0 mg/kg/injection, schedule: Q01DX001 (ip), vehicle: carboxymethylcellulose (CMC)) and 88 % of control (dose: 200.0 mg/kg/injection, schedule: Q01DX001 (ip), vehicle: carboxymethylcellulose (CMC)).

For the compound `N#CC(C#N)=Cc1cccc2ccccc12`, the T/C is, setting by setting: (dose: 50.0 mg/kg/injection, schedule: Q01DX009 (ip), vehicle: Klucel (hydroxypropylcellulose) (HPC)) 97 % of control and 91 % of control; under setting [4], 95 % of control and 103 % of control; under setting [5], 102 % of control; under setting [6], 96 % of control and 105 % of control; under setting [7], 97 % of control; under setting [9], 103 % of control.

For the compound `O=Cc1[nH]c(=S)[nH]c(=O)c1Cc1ccccc1Cl`, the T/C under setting [5] was 101 % of control, the T/C under setting [7] is 98 % of control and the T/C under setting [9] is 97 % of control.

As for `Nc1nc(N)c2cc(CCc3ccc(C(=O)NC(CCC(=O)O)C(=O)O)cc3)ccc2n1` (stereo not given), the T/C was 111 % of control (dose: 39.0 micrograms/kg/injection, schedule: Q01DX009 (ip), vehicle: Klucel (hydroxypropylcellulose) (HPC)); 117 % of control (dose: 78.0 micrograms/kg/injection, schedule: Q01DX009 (ip), vehicle: Klucel (hydroxypropylcellulose) (HPC)); 117 % of control (dose: 156.0 micrograms/kg/injection, schedule: Q01DX009 (ip), vehicle: Klucel (hydroxypropylcellulose) (HPC)); 170 % of control (dose: 625.0 micrograms/kg/injection, schedule: Q01DX009 (ip), vehicle: Klucel (hydroxypropylcellulose) (HPC)).

Consider `COc1cc(/C=N/N2C(=O)CSC2=S)ccc1OCc1ccccc1`, for which the T/C was 89 % of control under setting [16]; 93 % of control under setting [10]; 91 % of control under setting [17]; 93 % of control under setting [11]; 86 % of control under setting [12].

In the case of `CNC(=O)Oc1cc(OC)ccc1C(=O)c1ccccc1`, the T/C by setting is: under setting [4], 94 % of control; under setting [6], 96 % of control; under setting [8], 97 % of control.

`CCOC(=O)/C=C(/C)OC(C)=O`: the T/C is, setting by setting: under setting [4], 100 % of control; under setting [5], 101 % of control; under setting [6], 98 % of control; under setting [7], 95 % of control; under setting [8], 100 % of control; under setting [9], 95 % of control.

For `CCN=C(c1ccc(NC(=O)c2ccc(C(=O)Nc3ccc(C(=NCC)N(CC)C(C)=O)cc3)cc2)cc1)N(CC)C(C)=O`, the T/C by setting is: (dose: 125.0 mg/kg/injection, schedule: Q01DX015 (ip), vehicle: methylcellulose (MC)) 95 % of control; (dose: 375.0 mg/kg/injection, schedule: Q01DX015 (ip), vehicle: methylcellulose (MC)) 104 % of control; (dose: 500.0 mg/kg/injection, schedule: Q01DX015 (ip), vehicle: methylcellulose (MC)) 103 % of control.

For `Cc1c(Cl)cccc1NC(=O)c1ccc(Cl)c(Cl)c1`, the T/C is, setting by setting: (dose: 100.0 mg/kg/injection, schedule: Q01DX009 (ip), vehicle: gum acacia) 88 % of control; under setting [5], 103 % of control; (dose: 200.0 mg/kg/injection, schedule: Q01DX009 (ip), vehicle: gum acacia) 88 % of control; under setting [7], 90 % of control; (dose: 400.0 mg/kg/injection, schedule: Q01DX009 (ip), vehicle: gum acacia) 91 % of control; under setting [9], 95 % of control.

On to `COC(=O)C1C2CCC(C2)C1C` (stereo not given), for which the T/C is 101 % of control (dose: 25.0 mg/kg/injection, schedule: Q04DX003 (ip), vehicle: saline with Tween-80); 97 % of control (dose: 50.0 mg/kg/injection, schedule: Q04DX003 (ip), vehicle: saline with Tween-80); 94 % of control under setting [10].

In the case of `O=S(=O)(O)c1cccc(N=Nc2c(S(=O)(=O)O)cc3cc(S(=O)(=O)O)c(N=Nc4cccc(S(=O)(=O)O)c4)c(O)c3c2O)c1`, the T/C was 109 % of control under setting [16]; 116 % of control under setting [2]; 97 % of control under setting [17]; 111 % of control under setting [3]; 108 % of control (dose: 400.0 mg/kg/injection, schedule: Q01DX009 (ip), vehicle: saline with Tween-80); 103 % of control (dose: 400.0 mg/kg/injection, schedule: Q04DX003 (ip), vehicle: saline).

As to `CCc1oc2cc([N+](=O)[O-])ccc2c1C(OC(C)=O)OC(C)=O`, the T/C under setting [4] is 100 % of control, the T/C under setting [6] is 105 % of control and the T/C under setting [8] is 96 % of control.
